Reference: ChEMBL document CHEMBL5678804 (Cancer Cell, 2011)
Active and inactive are the calls of the source. The calls are words filed in the database; no cut-off is given here.

Experiments:
[1] = target: Serine/threonine-protein kinase ULK2 (Homo sapiens, UniProt Q8IYT8); assay: Inhibition of human wild type ULK2 using Casein as substrate preincubated for 2 hrs followed by ATP addition and measured every 2 mins for […] by spectrophotometric analysis
[2] = target: Serine/threonine-protein kinase WNK2 (Homo sapiens, UniProt Q9Y3S1); assay: Inhibition of human wild type WNK2 using RBER-CHKtide as substrate preincubated for 2 hrs followed by ATP addition and measured every 2 mins for […] by spectrophotometric analysis
[3] = target: Mitogen-activated protein kinase kinase kinase 10 (Homo sapiens, UniProt Q02779); assay: Inhibition of human wild type MLK2 using Histon H2B as substrate preincubated for 2 hrs followed by ATP addition and measured every 2 mins for […] by spectrophotometric analysis
[4] = target: Dual specificity protein kinase TTK (Homo sapiens, UniProt P33981); assay: Inhibition of human wild type TTK using RBER-CHKtide as substrate preincubated for 2 hrs followed by ATP addition and measured every 2 mins for […] by spectrophotometric analysis
Dual specificity protein kinase TTK, sequence (P33981 whole entry): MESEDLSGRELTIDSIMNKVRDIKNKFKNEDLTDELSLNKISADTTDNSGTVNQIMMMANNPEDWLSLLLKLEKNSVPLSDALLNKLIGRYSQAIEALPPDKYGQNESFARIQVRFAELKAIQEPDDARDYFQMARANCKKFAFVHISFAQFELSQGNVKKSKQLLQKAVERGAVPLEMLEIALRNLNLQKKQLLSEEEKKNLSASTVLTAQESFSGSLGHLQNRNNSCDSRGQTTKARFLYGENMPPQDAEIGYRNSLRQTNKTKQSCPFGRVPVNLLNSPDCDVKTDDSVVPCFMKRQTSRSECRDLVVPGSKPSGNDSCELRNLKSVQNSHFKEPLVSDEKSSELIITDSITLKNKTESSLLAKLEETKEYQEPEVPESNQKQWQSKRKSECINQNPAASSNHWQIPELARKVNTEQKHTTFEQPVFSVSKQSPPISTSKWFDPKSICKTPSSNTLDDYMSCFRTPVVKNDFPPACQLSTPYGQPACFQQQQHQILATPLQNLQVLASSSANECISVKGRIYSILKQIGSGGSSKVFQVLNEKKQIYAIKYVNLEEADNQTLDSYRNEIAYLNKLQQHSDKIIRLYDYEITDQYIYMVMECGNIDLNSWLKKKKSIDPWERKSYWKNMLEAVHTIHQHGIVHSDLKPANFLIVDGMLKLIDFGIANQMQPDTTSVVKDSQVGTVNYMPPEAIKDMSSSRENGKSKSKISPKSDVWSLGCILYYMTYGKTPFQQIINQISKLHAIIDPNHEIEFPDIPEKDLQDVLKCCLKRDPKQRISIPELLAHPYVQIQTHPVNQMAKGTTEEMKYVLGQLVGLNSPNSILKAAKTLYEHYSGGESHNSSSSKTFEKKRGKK

[5] = target: Interleukin-1 receptor-associated kinase 4 (Homo sapiens, UniProt Q9NWZ3); assay: Inhibition of human wild type IRAK4 using RB-CTF as substrate preincubated for 2 hrs followed by ATP addition and measured every 2 mins for […] by spectrophotometric analysis
[6] = target: Vascular endothelial growth factor receptor 1 (Homo sapiens, UniProt P17948); assay: Inhibition of human wild type FLT1 using PolyEY as substrate preincubated for 2 hrs followed by ATP addition and measured every 2 mins for […] by spectrophotometric analysis
[7] = target: Tyrosine-protein kinase Srms (Homo sapiens, UniProt Q9H3Y6); assay: Inhibition of human wild type SRMS using PolyEY as substrate preincubated for 2 hrs followed by ATP addition and measured every 2 mins for […] by spectrophotometric analysis
BaF3 [8] = assay: Antitumor activity against mouse BaF3 cells harbouring BCR-ABL1 T315I mutant xenografted in Balb/c mouse model assessed as prolongation of animal survival at 100 mg/kg, po administered once daily for 21 days; assay type: functional, organism-based; details: time 21.0 day
[9] = target: Ribosomal protein S6 kinase alpha-6 (Homo sapiens, UniProt Q9UK32); assay: Inhibition of human wild type RSK4 using RBER-GSK3([…] to […]) as substrate preincubated for 2 hrs followed by ATP addition and measured every 2 mins for […] by spectrophotometric analysis
Ribosomal protein S6 kinase alpha-6, sequence (Q9UK32 whole entry): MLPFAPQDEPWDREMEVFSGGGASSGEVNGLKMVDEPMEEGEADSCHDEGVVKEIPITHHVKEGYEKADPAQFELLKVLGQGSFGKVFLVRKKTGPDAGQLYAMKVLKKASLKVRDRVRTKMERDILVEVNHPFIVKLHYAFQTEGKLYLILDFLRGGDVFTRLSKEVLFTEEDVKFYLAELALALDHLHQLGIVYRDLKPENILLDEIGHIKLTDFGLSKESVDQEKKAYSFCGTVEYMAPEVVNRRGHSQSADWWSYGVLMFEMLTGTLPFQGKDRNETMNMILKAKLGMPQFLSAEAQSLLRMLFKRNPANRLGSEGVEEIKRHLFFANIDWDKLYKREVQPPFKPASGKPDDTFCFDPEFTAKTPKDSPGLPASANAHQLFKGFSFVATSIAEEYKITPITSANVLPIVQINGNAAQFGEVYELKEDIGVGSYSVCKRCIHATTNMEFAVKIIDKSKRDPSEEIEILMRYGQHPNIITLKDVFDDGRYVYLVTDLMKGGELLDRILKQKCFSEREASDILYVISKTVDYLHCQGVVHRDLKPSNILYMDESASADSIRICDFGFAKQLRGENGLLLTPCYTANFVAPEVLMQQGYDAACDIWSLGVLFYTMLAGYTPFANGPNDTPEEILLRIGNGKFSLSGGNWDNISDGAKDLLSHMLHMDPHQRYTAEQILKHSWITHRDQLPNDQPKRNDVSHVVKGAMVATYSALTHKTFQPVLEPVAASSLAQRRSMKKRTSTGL

CDK3/Cyclin E = CDK3/Cyclin E (Homo sapiens, UniProt Q00526); assay: Inhibition of human wild type CDK3/cyclinE using RBER-CHKtide as substrate preincubated for 2 hrs followed by ATP addition and measured every 2 mins for […] by spectrophotometric analysis; assay type: protein-complex assay
[10] = target: Tyrosine-protein kinase JAK1 (Homo sapiens, UniProt P23458); assay: Inhibition of human wild type JAK1 using RBER-IRStide as substrate preincubated for 2 hrs followed by ATP addition and measured every 2 mins for […] by spectrophotometric analysis
Tyrosine-protein kinase JAK1, sequence (P23458 whole entry): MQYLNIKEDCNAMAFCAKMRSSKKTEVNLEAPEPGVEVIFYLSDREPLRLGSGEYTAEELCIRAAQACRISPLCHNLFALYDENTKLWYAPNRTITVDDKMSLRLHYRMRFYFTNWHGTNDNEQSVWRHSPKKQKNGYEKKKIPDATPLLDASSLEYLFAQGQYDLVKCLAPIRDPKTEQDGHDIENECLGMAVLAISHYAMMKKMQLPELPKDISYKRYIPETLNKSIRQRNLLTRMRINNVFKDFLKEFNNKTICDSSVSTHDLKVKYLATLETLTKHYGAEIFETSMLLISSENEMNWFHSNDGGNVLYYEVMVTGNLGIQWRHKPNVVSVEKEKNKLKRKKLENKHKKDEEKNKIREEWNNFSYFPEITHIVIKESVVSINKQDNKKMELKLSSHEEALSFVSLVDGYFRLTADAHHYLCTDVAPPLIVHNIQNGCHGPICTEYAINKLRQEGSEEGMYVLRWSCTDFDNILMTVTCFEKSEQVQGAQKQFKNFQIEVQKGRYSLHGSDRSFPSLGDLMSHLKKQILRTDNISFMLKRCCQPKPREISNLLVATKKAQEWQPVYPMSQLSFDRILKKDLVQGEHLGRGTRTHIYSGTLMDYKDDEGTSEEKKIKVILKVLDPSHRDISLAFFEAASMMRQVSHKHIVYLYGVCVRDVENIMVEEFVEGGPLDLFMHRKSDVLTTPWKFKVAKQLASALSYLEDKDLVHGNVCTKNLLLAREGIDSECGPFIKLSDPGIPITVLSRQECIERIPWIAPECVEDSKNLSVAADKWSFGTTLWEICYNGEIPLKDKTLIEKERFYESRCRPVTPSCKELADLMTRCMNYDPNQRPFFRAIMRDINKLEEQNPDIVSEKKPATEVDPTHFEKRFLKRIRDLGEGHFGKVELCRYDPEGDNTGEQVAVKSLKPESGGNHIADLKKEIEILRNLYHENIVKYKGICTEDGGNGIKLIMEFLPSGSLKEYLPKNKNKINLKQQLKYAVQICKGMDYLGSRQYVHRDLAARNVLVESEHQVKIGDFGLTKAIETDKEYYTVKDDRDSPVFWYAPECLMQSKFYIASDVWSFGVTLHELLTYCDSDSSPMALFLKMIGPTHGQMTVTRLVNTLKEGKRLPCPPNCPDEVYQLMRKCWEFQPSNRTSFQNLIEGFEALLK

Activated CDC42 kinase 1 = Activated CDC42 kinase 1 (Homo sapiens, UniProt Q07912); assay: Inhibition of human wild type ACK1 using PolyEY as substrate preincubated for 2 hrs followed by ATP addition and measured every 2 mins for […] by spectrophotometric analysis
Activated CDC42 kinase 1, sequence (Q07912 whole entry): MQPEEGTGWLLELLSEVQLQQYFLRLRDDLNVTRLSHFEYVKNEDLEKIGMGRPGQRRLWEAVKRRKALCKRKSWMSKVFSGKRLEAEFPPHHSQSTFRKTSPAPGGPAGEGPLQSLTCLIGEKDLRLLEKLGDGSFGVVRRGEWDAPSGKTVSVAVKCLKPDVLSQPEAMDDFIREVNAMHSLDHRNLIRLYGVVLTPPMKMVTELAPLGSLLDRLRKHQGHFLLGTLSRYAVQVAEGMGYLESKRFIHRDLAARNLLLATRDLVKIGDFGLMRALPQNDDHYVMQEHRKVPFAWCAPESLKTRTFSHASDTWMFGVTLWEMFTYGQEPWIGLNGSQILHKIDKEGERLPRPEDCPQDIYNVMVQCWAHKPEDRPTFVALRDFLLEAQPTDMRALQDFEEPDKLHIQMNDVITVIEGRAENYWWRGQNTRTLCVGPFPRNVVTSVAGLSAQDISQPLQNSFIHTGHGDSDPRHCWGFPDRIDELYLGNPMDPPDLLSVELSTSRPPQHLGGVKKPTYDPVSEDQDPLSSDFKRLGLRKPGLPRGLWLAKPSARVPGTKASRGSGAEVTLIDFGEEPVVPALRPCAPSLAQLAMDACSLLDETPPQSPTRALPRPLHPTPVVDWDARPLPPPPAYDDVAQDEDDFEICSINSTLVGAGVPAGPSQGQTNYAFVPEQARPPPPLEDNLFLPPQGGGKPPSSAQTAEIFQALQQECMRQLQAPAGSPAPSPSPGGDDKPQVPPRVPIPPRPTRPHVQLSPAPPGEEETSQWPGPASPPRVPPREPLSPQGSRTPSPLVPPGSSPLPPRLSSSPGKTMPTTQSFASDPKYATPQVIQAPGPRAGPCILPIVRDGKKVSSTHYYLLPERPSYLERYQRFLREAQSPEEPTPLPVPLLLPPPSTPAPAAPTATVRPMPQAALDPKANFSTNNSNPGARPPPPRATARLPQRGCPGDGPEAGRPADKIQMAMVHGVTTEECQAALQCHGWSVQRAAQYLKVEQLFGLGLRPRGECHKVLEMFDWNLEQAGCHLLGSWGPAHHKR

[11] = target: Receptor tyrosine-protein kinase erbB-4 (Homo sapiens, UniProt Q15303); assay: Inhibition of human wild type HER4 using PolyEY as substrate preincubated for 2 hrs followed by ATP addition and measured every 2 mins for […] by spectrophotometric analysis
[12] = target: Inhibitor of nuclear factor kappa-B kinase subunit alpha (Homo sapiens, UniProt O15111); assay: Inhibition of human wild type IKK alpha using RBER-CHKtide as substrate preincubated for 2 hrs followed by ATP addition and measured every 2 mins for […] by spectrophotometric analysis
Inhibitor of nuclear factor kappa-B kinase subunit alpha, sequence (O15111 whole entry): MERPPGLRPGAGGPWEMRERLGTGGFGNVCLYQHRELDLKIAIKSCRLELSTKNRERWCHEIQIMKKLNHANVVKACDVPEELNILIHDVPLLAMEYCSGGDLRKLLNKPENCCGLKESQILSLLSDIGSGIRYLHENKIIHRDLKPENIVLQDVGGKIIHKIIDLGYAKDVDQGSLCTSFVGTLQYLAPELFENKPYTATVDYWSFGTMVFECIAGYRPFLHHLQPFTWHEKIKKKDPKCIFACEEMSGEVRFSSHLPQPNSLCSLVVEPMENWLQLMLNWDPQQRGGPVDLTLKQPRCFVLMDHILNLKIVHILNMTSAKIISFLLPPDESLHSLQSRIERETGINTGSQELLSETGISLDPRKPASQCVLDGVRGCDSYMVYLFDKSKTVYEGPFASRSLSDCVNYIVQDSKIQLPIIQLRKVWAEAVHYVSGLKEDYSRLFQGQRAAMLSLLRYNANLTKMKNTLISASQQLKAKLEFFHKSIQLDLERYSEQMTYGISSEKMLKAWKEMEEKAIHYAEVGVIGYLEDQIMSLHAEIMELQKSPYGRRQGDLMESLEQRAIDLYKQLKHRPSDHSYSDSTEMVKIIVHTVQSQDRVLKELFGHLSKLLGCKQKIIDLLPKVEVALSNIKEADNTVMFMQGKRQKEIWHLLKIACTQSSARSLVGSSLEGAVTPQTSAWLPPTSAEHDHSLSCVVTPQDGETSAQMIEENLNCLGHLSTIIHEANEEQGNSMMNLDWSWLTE

Ephrin type-B receptor 2 = Ephrin type-B receptor 2 (Homo sapiens, UniProt P29323); assay: Inhibition of human wild type EPHB2 using PolyEY as substrate preincubated for 2 hrs followed by ATP addition and measured every 2 mins for […] by spectrophotometric analysis
Focal adhesion kinase 1 = Focal adhesion kinase 1 (Homo sapiens, UniProt Q05397); assay: Inhibition of human wild type FAK using PolyEY as substrate preincubated for 2 hrs followed by ATP addition and measured every 2 mins for […] by spectrophotometric analysis
TGF-beta receptor type-2 = TGF-beta receptor type-2 (Homo sapiens, UniProt P37173); assay: Inhibition of human wild type TGFbetaR2 using RB-S6P as substrate preincubated for 2 hrs followed by ATP addition and measured every 2 mins for […] by spectrophotometric analysis
[13] = Inhibition of human wild type CDK2/A using RBER-CHKtide as substrate preincubated for 2 hrs followed by ATP addition and measured every 2 mins for […] by spectrophotometric analysis
[14] = target: Serine/threonine-protein kinase 17A (Homo sapiens, UniProt Q9UEE5); assay: Inhibition of human wild type DRAK1 using RB-CTF as substrate preincubated for 2 hrs followed by ATP addition and measured every 2 mins for […] by spectrophotometric analysis
Serine/threonine-protein kinase 17A, sequence (Q9UEE5 whole entry): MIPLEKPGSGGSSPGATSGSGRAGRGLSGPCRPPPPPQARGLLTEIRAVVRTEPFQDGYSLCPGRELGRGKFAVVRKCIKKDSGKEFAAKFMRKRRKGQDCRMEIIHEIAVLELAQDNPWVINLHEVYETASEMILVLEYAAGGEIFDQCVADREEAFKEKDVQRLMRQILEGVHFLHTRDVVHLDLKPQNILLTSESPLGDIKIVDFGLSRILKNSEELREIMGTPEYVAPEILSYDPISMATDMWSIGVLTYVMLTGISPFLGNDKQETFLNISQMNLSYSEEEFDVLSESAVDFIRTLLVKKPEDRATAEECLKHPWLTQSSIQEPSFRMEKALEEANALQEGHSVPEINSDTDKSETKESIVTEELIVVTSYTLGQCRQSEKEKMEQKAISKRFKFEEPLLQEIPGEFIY

[15] = target: MAP kinase-interacting serine/threonine-protein kinase 2 (Homo sapiens, UniProt Q9HBH9); assay: Inhibition of human wild type MNK2 using RB-S6P as substrate preincubated for 2 hrs followed by ATP addition and measured every 2 mins for […] by spectrophotometric analysis
[16] = target: Serine/threonine-protein kinase BRSK1 (Homo sapiens, UniProt Q8TDC3); assay: Inhibition of human wild type BRSK1 using RBER-CHKtide as substrate preincubated for 2 hrs followed by ATP addition and measured every 2 mins for […] by spectrophotometric analysis
[17] = target: Serine/threonine-protein kinase Sgk1 (Homo sapiens, UniProt O00141); assay: Inhibition of human wild type SGK1 using RBER-GSK3([…] to […]) as substrate preincubated for 2 hrs followed by ATP addition and measured every 2 mins for […] by spectrophotometric analysis
BaF3 [18] = assay: Antileukemic activity against mouse BaF3 cells harbouring BCR-ABL1 T315I mutant non-transduced with 5-FU treated bone marrow xenografted in Balb/c mouse assessed as alteration in B-lymphoid leukemia at 60 mg/kg, po administered twice daily; assay type: functional, organism-based
[19] = target: Signal transducer and activator of transcription 5A (Homo sapiens) (UniProt P42229); assay: Inhibition of STAT5 phosphorylation in Ph+ B-ALL patient with […] mutation derived human Leukemia cell at 50 to 1000 nM by immunoblot analysis; assay type: cell-based; details: dose 50-1000 nM
[20] = target: Serine/threonine-protein kinase PLK1 (Homo sapiens, UniProt P53350); assay: Inhibition of human wild type PLK1 using RBER-CHKtide as substrate preincubated for 2 hrs followed by ATP addition and measured every 2 mins for […] by spectrophotometric analysis
SRSF protein kinase 3 = SRSF protein kinase 3 (Homo sapiens, UniProt Q9UPE1); assay: Inhibition of human wild type MSSK1 using RBER-CHKtide as substrate preincubated for 2 hrs followed by ATP addition and measured every 2 mins for […] by spectrophotometric analysis
[21] = target: Beta-adrenergic receptor kinase 1 (Homo sapiens, UniProt P25098); assay: Inhibition of human wild type GRK2 using Casein as substrate preincubated for 2 hrs followed by ATP addition and measured every 2 mins for […] by spectrophotometric analysis
[22] = target: Serine/threonine-protein kinase 33 (Homo sapiens, UniProt Q9BYT3); assay: Inhibition of human wild type STK33 using RBER-CHKtide as substrate preincubated for 2 hrs followed by ATP addition and measured every 2 mins for […] by spectrophotometric analysis

IC50 [1]: 0.32 µM | IC50 [2]: > 1 µM | IC50 [3]: > 1 µM | IC50 [4]: 0.29 µM | IC50 [5]: > 1 µM | IC50 [6]: 0.32 µM | IC50 [7]: 0.37 µM | IC50 [9]: > 1 µM | IC50 (CDK3/Cyclin E): > 1 µM | IC50 [10]: 0.85 µM | IC50 (Activated CDC42 kinase 1): > 1 µM | IC50 [11]: > 1 µM | IC50 [12]: > 1 µM | IC50 (Ephrin type-B receptor 2): 0.31 µM | IC50 (Focal adhesion kinase 1): 0.25 µM | IC50 (TGF-beta receptor type-2): > 1 µM | IC50 [13]: > 1 µM | IC50 [14]: > 1 µM | IC50 [15]: 0.4 µM | IC50 [16]: > 1 µM | IC50 [17]: > 1 µM | inhibition [19]: Active | IC50 [20]: > 1 µM | IC50 (SRSF protein kinase 3): > 1 µM | IC50 [21]: > 1 µM | IC50 [22]: > 1 µM
SMILES: CNC(=O)c1cc(Oc2ccc(NC(=O)Nc3cc(C(C)(C)C)nn3-c3ccc4ncccc4c3)c(F)c2)ccn1 [REBASTINIB]
Activity (BaF3 [8]): Active | Activity (BaF3 [18]): Active
